≈ marks a conversion by molar mass, not a printed value.

One experiment relates to E. faecalis ATCC 29212. In words: MIC against E. faecalis ATCC 29212. The class given is cell-based. The following applies: Enterococcus faecalis, ATCC29212.
Take `CSC1O[C@H]([C@H](NC(=O)[C@H]2NC[C@@H]3CC(NC4CC4)CCO[C@H]32)[C@H](C)Cl)C(O)[C@@H](O)[C@H]1O` (stereo partly drawn) [FSA-510011]: the MIC was above 64 µg/mL.
On to `CSC1O[C@H]([C@H](NC(=O)[C@H]2NC[C@@H]3CC(NCc4ccc(F)cc4)CCO[C@H]32)[C@H](C)Cl)C(O)[C@@H](O)[C@H]1O` (stereo partly drawn) [FSA-510074], for which the MIC was above 64 µg/mL.

The experiment is the same for the next values; noted with them: Enterococcus faecalis, ATCC29212, read-out: MIC.
Take `CSC1O[C@H]([C@H](NC(=O)[C@H]2NC[C@@H]3C=C(c4ccc(C)cc4)CCO[C@@H]23)[C@H](C)Cl)C(O)[C@@H](O)[C@H]1O` (stereo partly drawn) [FSA-512075]: the MIC was found to be 2 µg/mL (≈ 3.79 µM).
As to `CSC1O[C@H]([C@H](NC(=O)[C@H]2NC[C@@H]3C=C(c4cc(F)cc(F)c4)CCO[C@@H]23)[C@H](C)Cl)C(O)[C@@H](O)[C@H]1O` (stereo partly drawn) [FSA-511074], the MIC was 4 µg/mL (≈ 7.29 µM).

The next experiment deals with E. coli MP-74 LptD mutant. In words: MIC against E. coli MP-74 LptD mutant. The experiment is classed as cell-based. The following applies: Escherichia coli.
As to `CSC1O[C@H]([C@H](NC(=O)[C@H]2NC[C@@H]3CC(NC4CC4)CCO[C@H]32)[C@H](C)Cl)C(O)[C@@H](O)[C@H]1O` (stereo partly drawn) [FSA-510011], the MIC was above 64 µg/mL.
`CSC1O[C@H]([C@H](NC(=O)[C@H]2NC[C@@H]3CC(NCc4ccc(F)cc4)CCO[C@H]32)[C@H](C)Cl)C(O)[C@@H](O)[C@H]1O` (stereo partly drawn) [FSA-510074] returned an MIC above 64 µg/mL.

A further experiment relates to S. aureus MP-549 msr(a) USA 300. The experiment can be described thus: MIC against S. aureus MP-549 msr(a) USA 300. The class given is cell-based. The following applies: Staphylococcus aureus, USA300, S. aureus MP-549 msr(a) USA 300.
With `CSC1O[C@H]([C@H](NC(=O)[C@H]2NC[C@@H]3C=C(c4cc(F)cc(F)c4)CCO[C@@H]23)[C@H](C)Cl)C(O)[C@@H](O)[C@H]1O` (stereo partly drawn) [FSA-511074], the MIC stood at 1 µg/mL (≈ 1.82 µM).

A further experiment has as its system S. pyogenes ATCC 19615. In words: MIC against S. pyogenes ATCC 19615. To be noted: Streptococcus pyogenes, ATCC19615; S. pyogenes ATCC 19615; read-out: MIC. The experiment is classed as cell-based.
For the compound `CSC1O[C@H]([C@H](NC(=O)[C@H]2NC[C@@H]3CC(NC4CC4)CCO[C@H]32)[C@H](C)Cl)C(O)[C@@H](O)[C@H]1O` (stereo partly drawn) [FSA-510011], the MIC turned out to be 2 µg/mL (≈ 4.05 µM).
On to `CSC1O[C@H]([C@H](NC(=O)[C@H]2NC[C@@H]3C=C(c4cc(F)cc(F)c4)CCO[C@@H]23)[C@H](C)Cl)C(O)[C@@H](O)[C@H]1O` (stereo partly drawn) [FSA-511074], for which the MIC stood at 0.5 µg/mL (≈ 0.911 µM).
For `CSC1O[C@H]([C@H](NC(=O)[C@H]2NC[C@@H]3CC(NCc4ccc(F)cc4)CCO[C@H]32)[C@H](C)Cl)C(O)[C@@H](O)[C@H]1O` (stereo partly drawn) [FSA-510074], the MIC stood at 8 µg/mL (≈ 14.2 µM).

The subject of the next experiment is E. coli MP-9 ΔTolC. In words: MIC against E. coli MP-9 ΔTolC. The class given is cell-based. The following applies: Escherichia coli.
The compound `CSC1O[C@H]([C@H](NC(=O)[C@H]2NC[C@@H]3CC(NC4CC4)CCO[C@H]32)[C@H](C)Cl)C(O)[C@@H](O)[C@H]1O` (stereo partly drawn) [FSA-510011] showed an MIC above 64 µg/mL.

For the next experiment, the system named is S. aureus BAA 977 iErmA. In words: MIC against S. aureus BAA 977 iErmA. The experiment is classed as cell-based. To be noted: Staphylococcus aureus, BAA977.
For the compound `CSC1O[C@H]([C@H](NC(=O)[C@H]2NC[C@@H]3C=C(c4cc(F)cc(F)c4)CCO[C@@H]23)[C@H](C)Cl)C(O)[C@@H](O)[C@H]1O` (stereo partly drawn) [FSA-511074], the MIC is 2 µg/mL (≈ 3.64 µM).

Another experiment has as its system S. aureus MMX 3035 cErmA. The experiment can be described thus: MIC against S. aureus MMX 3035 cErmA. The class given is cell-based. To be noted: Staphylococcus aureus, MMX3035CERMA; S. aureus MMX 3035 cErmA; read-out: MIC.
`CSC1O[C@H]([C@H](NC(=O)[C@H]2NC[C@@H]3C=C(c4cc(F)cc(F)c4)CCO[C@@H]23)[C@H](C)Cl)C(O)[C@@H](O)[C@H]1O` (stereo partly drawn) [FSA-511074]: the MIC is above 64 µg/mL.

The test system of the next experiment is S. pneumoniae ATCC 49619. In words: MIC against S. pneumoniae ATCC 49619. The experiment is classed as cell-based. The following applies: Streptococcus pneumoniae, ATCC49619; S. pneumoniae ATCC 49619; read-out: MIC.
With `CSC1O[C@H]([C@H](NC(=O)[C@H]2NC[C@@H]3CC(NC4CC4)CCO[C@H]32)[C@H](C)Cl)C(O)[C@@H](O)[C@H]1O` (stereo partly drawn) [FSA-510011], the MIC worked out at 8 µg/mL (≈ 16.2 µM).

For the next experiment, the system named is E. coli ATCC 25922. The experiment can be described thus: MIC against E. coli ATCC 25922. The class given is cell-based. To be noted: Escherichia coli, ATCC25922.
Compound `CSC1O[C@H]([C@H](NC(=O)[C@H]2NC[C@@H]3CC(NC4CC4)CCO[C@H]32)[C@H](C)Cl)C(O)[C@@H](O)[C@H]1O` (stereo partly drawn) [FSA-510011] returned an MIC above 64 µg/mL.
As to `CSC1O[C@H]([C@H](NC(=O)[C@H]2NC[C@@H]3CC(NCc4ccc(F)cc4)CCO[C@H]32)[C@H](C)Cl)C(O)[C@@H](O)[C@H]1O` (stereo partly drawn) [FSA-510074], the MIC was above 64 µg/mL.

Still in this experiment, the particulars now being: Escherichia coli, ATCC25922; E. coli ATCC 25922; read-out: MIC.
`CSC1O[C@H]([C@H](NC(=O)[C@H]2NC[C@@H]3C=C(c4ccc(C)cc4)CCO[C@@H]23)[C@H](C)Cl)C(O)[C@@H](O)[C@H]1O` (stereo partly drawn) [FSA-512075]: the MIC was above 256 µg/mL.
As for `CSC1O[C@H]([C@H](NC(=O)[C@H]2NC[C@@H]3C=C(c4cc(F)cc(F)c4)CCO[C@@H]23)[C@H](C)Cl)C(O)[C@@H](O)[C@H]1O` (stereo partly drawn) [FSA-511074], the MIC is above 64 µg/mL.

For a further experiment, the system named is S. pyogenes MMX 946 Macrolide-Resistant. In words: MIC against S. pyogenes MMX 946 Macrolide-Resistant. The experiment is classed as cell-based. To be noted: Streptococcus pyogenes; S. pyogenes MMX 946 Macrolide-Resistant (MacRes); read-out: MIC.
For `CSC1O[C@H]([C@H](NC(=O)[C@H]2NC[C@@H]3C=C(c4cc(F)cc(F)c4)CCO[C@@H]23)[C@H](C)Cl)C(O)[C@@H](O)[C@H]1O` (stereo partly drawn) [FSA-511074], the MIC is above 64 µg/mL.

The next experiment deals with K. pneumoniae ATCC 10031. The experiment can be described thus: MIC against K. pneumoniae ATCC 10031. The class given is cell-based. To be noted: Klebsiella pneumoniae, ATCC10031.
On to `CSC1O[C@H]([C@H](NC(=O)[C@H]2NC[C@@H]3CC(NC4CC4)CCO[C@H]32)[C@H](C)Cl)C(O)[C@@H](O)[C@H]1O` (stereo partly drawn) [FSA-510011], for which the MIC is above 64 µg/mL.
The same measure, in the same setting: to `CSC1O[C@H]([C@H](NC(=O)[C@H]2NC[C@@H]3CC(NCc4ccc(F)cc4)CCO[C@H]32)[C@H](C)Cl)C(O)[C@@H](O)[C@H]1O` (stereo partly drawn) [FSA-510074] belongs above 64 µg/mL.

Another experiment deals with H. influenzae ATCC 49247. The experiment can be described thus: MIC against H. influenzae ATCC 49247. To be noted: Haemophilus influenzae, ATCC49247. The class given is cell-based.
In turn, `CSC1O[C@H]([C@H](NC(=O)[C@H]2NC[C@@H]3CC(NC4CC4)CCO[C@H]32)[C@H](C)Cl)C(O)[C@@H](O)[C@H]1O` (stereo partly drawn) [FSA-510011] had an MIC above 64 µg/mL.
Regarding `CSC1O[C@H]([C@H](NC(=O)[C@H]2NC[C@@H]3CC(NCc4ccc(F)cc4)CCO[C@H]32)[C@H](C)Cl)C(O)[C@@H](O)[C@H]1O` (stereo partly drawn) [FSA-510074], the MIC was above 64 µg/mL.

Still in this experiment, the particulars now being: Haemophilus influenzae, ATCC49247; H. influenzae ATCC 49247; read-out: MIC.
Regarding `CSC1O[C@H]([C@H](NC(=O)[C@H]2NC[C@@H]3C=C(c4cc(F)cc(F)c4)CCO[C@@H]23)[C@H](C)Cl)C(O)[C@@H](O)[C@H]1O` (stereo partly drawn) [FSA-511074], the MIC is above 64 µg/mL.

A further experiment relates to E. faecalis MMX 847 Macrolide-Resistant. The experiment can be described thus: MIC against E. faecalis MMX 847 Macrolide-Resistant. To be noted: Enterococcus faecalis; E. faecalis MMX 847 Macrolide-Resistant (MacRes); read-out: MIC. The experiment is classed as cell-based.
For `CSC1O[C@H]([C@H](NC(=O)[C@H]2NC[C@@H]3C=C(c4cc(F)cc(F)c4)CCO[C@@H]23)[C@H](C)Cl)C(O)[C@@H](O)[C@H]1O` (stereo partly drawn) [FSA-511074], the MIC was above 64 µg/mL.

A further experiment has as its system S. aureus ATCC 29213. In words: MIC against S. aureus ATCC 29213. The experiment is classed as cell-based. The following applies: Staphylococcus aureus, ATCC29213, S. aureus ATCC 29213; read-out: MIC.
Turning to `CSC1O[C@H]([C@H](NC(=O)[C@H]2NC[C@@H]3C=C(c4ccc(C)cc4)CCO[C@@H]23)[C@H](C)Cl)C(O)[C@@H](O)[C@H]1O` (stereo partly drawn) [FSA-512075], the MIC worked out at 0.5 µg/mL (≈ 0.949 µM).
Still for that read-out and setting: for `CSC1O[C@H]([C@H](NC(=O)[C@H]2NC[C@@H]3C=C(c4cc(F)cc(F)c4)CCO[C@@H]23)[C@H](C)Cl)C(O)[C@@H](O)[C@H]1O` (stereo partly drawn) [FSA-511074] the value was 2 µg/mL (≈ 3.64 µM).

The record behind these values is patent US20220073554A1, “LINCOSAMIDE ANTIBIOTICS AND USES THEREOF” (President and Fellows of Harvard College, priority 2017, published 2022).
